Tests used:
HDAC6 human recombinant = target: T1, HDAC6 human recombinant (Homo sapiens, UniProt Q9UBN7); experiment: Inhibition of HDAC6 activity (fluorimetric assay); type: biochemical; conditions: test concentrations 0.1, 1, 10, 100 and 1000 nM; 37° C., 60 minutes
T1 construct: purchased Calbiochem 382180
T1 sequence (Q9UBN7 1-1215): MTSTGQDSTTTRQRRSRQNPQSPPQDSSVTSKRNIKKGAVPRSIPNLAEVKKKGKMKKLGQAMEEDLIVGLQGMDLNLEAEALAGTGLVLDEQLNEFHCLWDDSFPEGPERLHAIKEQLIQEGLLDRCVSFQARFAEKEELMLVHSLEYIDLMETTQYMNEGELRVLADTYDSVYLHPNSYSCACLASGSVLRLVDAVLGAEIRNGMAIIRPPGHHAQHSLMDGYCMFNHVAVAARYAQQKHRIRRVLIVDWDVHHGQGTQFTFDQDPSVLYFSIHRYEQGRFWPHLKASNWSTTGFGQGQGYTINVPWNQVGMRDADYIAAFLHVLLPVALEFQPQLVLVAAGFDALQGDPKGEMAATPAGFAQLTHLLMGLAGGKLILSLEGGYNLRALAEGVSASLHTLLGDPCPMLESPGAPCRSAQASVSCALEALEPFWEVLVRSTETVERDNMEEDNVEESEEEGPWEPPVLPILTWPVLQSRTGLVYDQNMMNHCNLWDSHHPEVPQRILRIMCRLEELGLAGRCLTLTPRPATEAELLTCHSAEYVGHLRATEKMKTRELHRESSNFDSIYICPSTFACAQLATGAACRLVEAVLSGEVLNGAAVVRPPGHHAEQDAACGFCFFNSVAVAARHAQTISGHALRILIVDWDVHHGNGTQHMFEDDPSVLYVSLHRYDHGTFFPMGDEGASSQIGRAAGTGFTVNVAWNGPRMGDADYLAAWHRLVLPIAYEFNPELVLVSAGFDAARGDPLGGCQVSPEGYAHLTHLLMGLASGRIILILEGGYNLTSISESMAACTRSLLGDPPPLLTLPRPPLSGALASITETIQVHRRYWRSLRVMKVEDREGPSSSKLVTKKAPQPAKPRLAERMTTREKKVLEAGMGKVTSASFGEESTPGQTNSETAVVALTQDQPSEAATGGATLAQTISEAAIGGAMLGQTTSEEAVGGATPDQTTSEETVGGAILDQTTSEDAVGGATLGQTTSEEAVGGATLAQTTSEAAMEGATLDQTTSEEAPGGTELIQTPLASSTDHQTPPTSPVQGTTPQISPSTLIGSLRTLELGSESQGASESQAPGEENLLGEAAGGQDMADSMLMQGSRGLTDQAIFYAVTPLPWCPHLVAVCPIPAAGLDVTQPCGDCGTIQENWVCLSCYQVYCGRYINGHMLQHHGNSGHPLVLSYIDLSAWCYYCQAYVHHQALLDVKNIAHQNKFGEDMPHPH
Procedure, shortened: (§1)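 HDAC1 tested with the kit assay mixture at 100, 1000 and 10000 nM compound; recombinant human HDAC6 at 0.1, 1, 10, 100 and 1000 nM. Reaction ran 60 min at 37° C, then developer was added for 30 min at 37° C and fluorescence quantified.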

HDAC1 = target: T2, HDAC1 (Homo sapiens, UniProt Q13547); experiment: Inhibition of HDAC1 activity (HDAC1 fluorimetric drug discovery assay kit); type: biochemical; conditions: test concentrations 100, 1000 and 10000 nM; 37° C., 60 minutes
T2 construct: purchased Enzolifesciences BML-AK511
Procedure, shortened: as §1

T2 sequence (Q13547 whole entry): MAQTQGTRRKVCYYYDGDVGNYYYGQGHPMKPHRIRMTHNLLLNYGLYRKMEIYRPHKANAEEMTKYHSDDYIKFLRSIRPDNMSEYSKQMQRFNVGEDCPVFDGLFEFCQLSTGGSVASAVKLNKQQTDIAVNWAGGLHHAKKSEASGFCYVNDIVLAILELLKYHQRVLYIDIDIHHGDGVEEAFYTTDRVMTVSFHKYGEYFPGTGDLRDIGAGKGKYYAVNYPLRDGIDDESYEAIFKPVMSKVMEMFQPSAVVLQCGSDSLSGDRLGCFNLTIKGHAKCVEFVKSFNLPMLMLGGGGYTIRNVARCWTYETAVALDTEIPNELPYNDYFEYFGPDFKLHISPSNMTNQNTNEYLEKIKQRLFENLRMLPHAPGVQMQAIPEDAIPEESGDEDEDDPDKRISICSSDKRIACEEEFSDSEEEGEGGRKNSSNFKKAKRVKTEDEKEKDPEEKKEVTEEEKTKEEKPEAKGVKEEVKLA

Structure (SMILES)	IC50 (HDAC6 human recombinant) [µM]	IC50 (HDAC1) [µM]
O=C(NO)c1ccc(Cn2ccc3cc(C4CCN(CC5(C(F)(F)F)CCC5)CC4)cnc32)cc1 [Compound 724, N-hydroxy-4-((5-(1-((1-(trifluoromethyl)cyclobutyl)methyl)piperidin-4-yl)-1H-pyrrolo[2,3-b]pyridin-1-yl)methyl)benzamide]	0.147	9.82
O=C(NO)c1ccc(Cn2ccc3c(C4CCN(Cc5cccc(CN6CCOCC6)c5)CC4)ccnc32)cc1 [Compound 985, N-hydroxy-4-((4-(1-(3-(morpholinomethyl)benzyl)piperidin-4-yl)-1H-pyrrolo[2,3-b]pyridin-1-yl)methyl)benzamide]	0.0023	0.51
O=C(NO)c1ccc(Cn2ccc3c(N4CCN(C(=O)C5(C(F)(F)F)CCC5)CC4)ccnc32)cc1 [Compound 703, N-hydroxy-4-((4-(4-(1-(trifluoromethyl)cyclobutanecarbonyl)piperazin-1-yl)-1H-pyrrolo[2,3-b]pyridin-1-yl)methyl)benzamide]	0.006	0.72
CC(C)CN1CCC(c2cnc3c(ccn3Cc3ccc(C(=O)NO)cc3)c2)CC1 [Compound 863, N-hydroxy-4-((5-(1-isobutylpiperidin-4-yl)-1H-pyrrolo[2,3-b]pyridin-1-yl)methyl)benzamide]	0.0115	1.12
O=C(NO)c1ccc(Cn2ccc3c(C4CCN(Cc5cccc(F)c5)CC4)ccnc32)cc1 [Compound 870, 4-((4-(1-(3-fluorobenzyl)piperidin-4-yl)-1H-pyrrolo[2,3-b]pyridin-1-yl)methyl)-N-hydroxybenzamide]	0.0206	0.33
O=C(NO)c1ccc(Cn2ccc3cc(-c4ccc(F)cc4F)cnc32)cc1 [Compound 125, 4-((5-(2,4-difluorophenyl)-1H-pyrrolo[2,3-b]pyridin-1-yl)methyl)-N-hydroxybenzamide]	0.052	1.61
CC(C)(C)CN1CCC(c2ccnc3c2ccn3Cc2ccc(C(=O)NO)cc2)CC1 [Compound 868, N-hydroxy-4-((4-(1-neopentylpiperidin-4-yl)-1H-pyrrolo[2,3-b]pyridin-1-yl)methyl)benzamide]	0.0156	0.93
O=C(NO)c1ccc(Cn2ccc3cc(-c4ccc5cccnc5c4)cnc32)cc1 [Compound 688, N-hydroxy-4-((5-(quinolin-7-yl)-1H-pyrrolo[2,3-b]pyridin-1-yl)methyl)benzamide]	0.022	4.61
O=C(NO)c1ccc(Cn2ccc3cc(-c4ccc(F)cc4)cnc32)cc1 [Compound 104, 4-((5-(4-fluorophenyl)-1H-pyrrolo[2,3-b]pyridin-1-yl)methyl)-N-hydroxybenzamide]	0.0007	1.67
CCc1cnc(N2CCN(c3ccnc4c3ccn4Cc3ccc(C(=O)NO)cc3)CC2)nc1 [Compound 702, 4-((4-(4-(5-ethylpyrimidin-2-yl)piperazin-1-yl)-1H-pyrrolo[2,3-b]pyridin-1-yl)methyl)-N-hydroxybenzamide]	0.016	1.04
O=C(NO)c1ccc(Cn2ccc3cc(C4CCN(Cc5cncnc5)CC4)cnc32)cc1 [Compound 880, N-hydroxy-4-((5-(1-(pyrimidin-5-ylmethyl)piperidin-4-yl)-1H-pyrrolo[2,3-b]pyridin-1-yl)methyl)benzamide]	0.006	0.77
O=C(NO)c1ccc(Cn2ccc3c(-c4ccccc4)ccnc32)cc1 [Compound 656, N-hydroxy-4-((4-phenyl-1H-pyrrolo[2,3-b]pyridin-1-yl)methyl)benzamide]	0.016	1.35
CC(C)(F)C(=O)N1CCN(c2ccnc3c2ccn3Cc2ccc(C(=O)NO)cc2)CC1 [Compound 856, 4-((4-(4-(2-fluoro-2-methylpropanoyl)piperazin-1-yl)-1H-pyrrolo[2,3-b]pyridin-1-yl)methyl)-N-hydroxybenzamide]	0.0023	0.08
CC(C)CN1CCN(c2cnc3c(ccn3Cc3ccc(C(=O)NO)cc3)c2)CC1 [Compound 853, N-hydroxy-4-((5-(4-isobutylpiperazin-1-yl)-1H-pyrrolo[2,3-b]pyridin-1-yl)methyl)benzamide]	0.024	3.51
O=C(NO)c1ccc(Cn2ccc3cc(-c4cccnc4)cnc32)cc1 [Compound 103]	0.00026	0.382
CC(C)(O)CN1C2CCC1CN(c1ccnc3c1ccn3Cc1ccc(C(=O)NO)cc1)C2 [Compound 1017, N-hydroxy-4-((4-(8-(2-hydroxy-2-methylpropyl)-3,8-diazabicyclo[3.2.1]octan-3-yl)-1H-pyrrolo[2,3-b]pyridin-1-yl)methyl)benzamide]	0.006	0.22
O=C(NO)c1ccc(Cn2ccc3cc(-c4ccc(O)cc4)cnc32)cc1 [Compound 691, N-hydroxy-4-((5-(4-hydroxyphenyl)-1H-pyrrolo[2,3-b]pyridin-1-yl)methyl)benzamide]	0.005	2.31
COc1ccc(-c2cnc3c(ccn3Cc3ccc(C(=O)NO)cc3)c2)cc1 [Compound 689, N-hydroxy-4-((5-(4-methoxyphenyl)-1H-pyrrolo[2,3-b]pyridin-1-yl)methyl)benzamide]	0.083	3.17
C[C@@H]1CN(c2cnc3c(ccn3Cc3ccc(C(=O)NO)cc3)c2)C[C@H](C)N1Cc1cccnc1 [Compound 1004, 4-((5-((3S,5R)-3,5-dimethyl-4-(pyridin-3-ylmethyl)piperazin-1-yl)-1H-pyrrolo[2,3-b]pyridin-1-yl)methyl)-N-hydroxybenzamide]	0.0032	0.61
O=C(NO)c1ccc(Cn2ccc3c(-c4ccc(CN5CCOCC5)cc4)ccnc32)cc1 [Compound 762, N-hydroxy-4-((4-(4-(morpholinomethyl)phenyl)-1H-pyrrolo[2,3-b]pyridin-1-yl)methyl)benzamide]	0.01	0.78
CC(C)(C)OC(=O)N1CCC(F)(CN2CCN(c3ccnc4c3ccn4Cc3ccc(C(=O)NO)cc3)CC2)CC1 [Compound 760, tert-butyl 4-fluoro-4-((4-(1-(4-(hydroxycarbamoyl)benzyl)-1H-pyrrolo[2,3-b]pyridin-4-yl)piperazin-1-yl)methyl)piperidine-1-carboxylate]	0.037	3.21
O=C(NO)c1ccc(Cn2ccc3c(C4CCN(C(=O)c5cccc(F)c5)CC4)ccnc32)cc1 [Compound 860, 4-((4-(1-(3-fluorobenzoyl)piperidin-4-yl)-1H-pyrrolo[2,3-b]pyridin-1-yl)methyl)-N-hydroxybenzamide]	0.0025	0.12
O=C(NO)c1ccc(Cn2ccc3c(-c4ccncc4)ccnc32)cc1 [Compound 657, N-hydroxy-4-((4-(pyridin-4-yl)-1H-pyrrolo[2,3-b]pyridin-1-yl)methyl)benzamide]	0.009	0.47
CC(C)(F)CN1CC=C(c2ccnc3c2ccn3Cc2ccc(C(=O)NO)cc2)CC1 [Compound 630, 4-((4-(1-(2-fluoro-2-methylpropyl)-1,2,3,6-tetrahydropyridin-4-yl)-1H-pyrrolo[2,3-b]pyridin-1-yl)methyl)-N-hydroxybenzamide]	0.008	1.09
O=C(NO)c1ccc(Cn2ccc3c(N4CCC5(CC4)CN(Cc4cccnc4)C5)ccnc32)cc1 [Compound 1024, N-hydroxy-4-((4-(2-(pyridin-3-ylmethyl)-2,7-diazaspiro[3.5]nonan-7-yl)-1H-pyrrolo[2,3-b]pyridin-1-yl)methyl)benzamide]	0.0018	0.19
O=C(NO)c1ccc(Cn2ccc3c(C4CCN(Cc5ncccn5)CC4)ccnc32)cc1 [Compound 966, N-hydroxy-4-((4-(1-(pyrimidin-2-ylmethyl)piperidin-4-yl)-1H-pyrrolo[2,3-b]pyridin-1-yl)methyl)benzamide]	0.0038	0.28

Reference: US9650379B2 (CHONG KUN DANG PHARMACEUTICAL CORP., priority 2013, dated 2017)
